Results as given in PMC6934184, “Selective DNA-PKcs inhibition extends the therapeutic index of localized radiotherapy and chemotherapy” (The Journal of Clinical Investigation, 2019).

Target: T1, MAP4K4 (HGK) (Homo sapiens, UniProt O95819)
T1 construct: purchased Thermo Fisher Scientific (Life Technologies) SelectScreen
Test: SelectScreen Z'LYTE
Assay type: biochemical
Outline: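 NU5455 was profiled across the SelectScreen Broad panel of kinase activity and binding assays. Z'LYTE reactions such as CSF1R ran at apparent Km ATP, while the Adapta CAMK1 assay used ATP listed as 10. Values are given as percent.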

T1 sequence (O95819 whole entry): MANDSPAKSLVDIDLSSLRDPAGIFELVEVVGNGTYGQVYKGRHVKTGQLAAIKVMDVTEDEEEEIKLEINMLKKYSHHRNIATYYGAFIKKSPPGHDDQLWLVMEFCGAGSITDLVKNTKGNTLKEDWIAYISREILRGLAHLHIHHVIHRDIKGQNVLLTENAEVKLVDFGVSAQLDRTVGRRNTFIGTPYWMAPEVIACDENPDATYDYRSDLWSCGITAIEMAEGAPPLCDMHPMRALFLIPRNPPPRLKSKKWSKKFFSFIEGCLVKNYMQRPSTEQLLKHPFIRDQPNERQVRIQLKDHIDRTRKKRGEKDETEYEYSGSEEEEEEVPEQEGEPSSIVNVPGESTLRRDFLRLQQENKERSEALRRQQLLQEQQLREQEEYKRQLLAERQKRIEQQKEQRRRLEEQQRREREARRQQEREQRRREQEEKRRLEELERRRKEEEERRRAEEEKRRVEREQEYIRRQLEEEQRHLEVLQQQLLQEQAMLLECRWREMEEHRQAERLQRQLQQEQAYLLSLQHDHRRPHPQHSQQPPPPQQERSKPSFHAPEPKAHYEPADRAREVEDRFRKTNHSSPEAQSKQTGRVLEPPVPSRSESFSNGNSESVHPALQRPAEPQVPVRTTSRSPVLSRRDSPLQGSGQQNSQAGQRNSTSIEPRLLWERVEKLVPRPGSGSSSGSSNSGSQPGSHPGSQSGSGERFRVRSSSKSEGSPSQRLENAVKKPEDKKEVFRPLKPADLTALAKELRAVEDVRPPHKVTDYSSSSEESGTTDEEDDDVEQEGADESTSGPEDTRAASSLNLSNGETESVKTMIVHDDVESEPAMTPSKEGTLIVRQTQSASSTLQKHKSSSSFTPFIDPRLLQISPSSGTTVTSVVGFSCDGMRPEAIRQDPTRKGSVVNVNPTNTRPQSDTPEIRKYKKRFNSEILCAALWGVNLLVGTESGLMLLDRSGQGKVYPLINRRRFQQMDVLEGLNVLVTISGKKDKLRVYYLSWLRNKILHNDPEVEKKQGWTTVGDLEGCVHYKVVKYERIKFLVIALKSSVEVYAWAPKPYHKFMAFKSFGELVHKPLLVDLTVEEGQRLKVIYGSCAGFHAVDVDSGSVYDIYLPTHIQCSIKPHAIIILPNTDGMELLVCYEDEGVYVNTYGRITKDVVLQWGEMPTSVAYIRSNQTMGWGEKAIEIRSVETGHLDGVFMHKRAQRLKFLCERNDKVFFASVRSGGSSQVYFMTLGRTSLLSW

CN(C(=O)CN1CCOCC1)c1ccc2sc3c(-c4cccc5c(=O)cc(N6CC7CCC(C6)O7)oc45)cccc3c2c1 [NU5455]
inhibition at 1 µM: -5.6%
